Reference: PubChem BioAssay (NCI)
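Test compounds were applied to cells in 96-well plates for 48 hours at 5 doses. At the GI50, growth is halved. At the TGI there is no net growth.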

Columns and labels:
Experiment in all cases: NCI anticancer screen, dose series, 48 h
NCI-H460 lung = test system: NCI-H460 lung
UACC-62 melanoma = test system: UACC-62 melanoma
MDA-MB-231 breast = test system: MDA-MB-231 breast
SK-MEL-28 melanoma = test system: SK-MEL-28 melanoma
T-47D breast = test system: T-47D breast
HCT-15 colon = test system: HCT-15 colon
OVCAR-4 ovarian = test system: OVCAR-4 ovarian
OVCAR-3 ovarian = test system: OVCAR-3 ovarian
DU-145 prostate = test system: DU-145 prostate
HS 578T breast = test system: HS 578T breast

CN1CC(c2ccccc2)C(O)(C2(c3ccccc3)CN(C)CC(c3ccccc3)C2=O)C(c2ccccc2)C1 (configuration not stated)
TGI (NCI-H460 lung): > 100 µM | TGI (UACC-62 melanoma): > 100 µM | TGI (MDA-MB-231 breast): > 100 µM | TGI (SK-MEL-28 melanoma): > 100 µM | TGI (T-47D breast): > 100 µM | TGI (HCT-15 colon): > 100 µM | TGI (OVCAR-4 ovarian): > 100 µM | TGI (OVCAR-3 ovarian): > 100 µM | TGI (DU-145 prostate): > 100 µM | TGI (HS 578T breast): 94.2 µM

CC[C@@]1(OC(=O)CN(C)C)C(=O)OCc2c1cc1n(c2=O)Cc2cc3c(N)cccc3nc2-1
GI50 (UACC-62 melanoma): 0.0164 µM | TGI (UACC-62 melanoma): 0.159 µM | GI50 (MDA-MB-231 breast): 1.07 µM | TGI (MDA-MB-231 breast): > 100 µM | GI50 (SK-MEL-28 melanoma): 0.297 µM | TGI (SK-MEL-28 melanoma): 4.28 µM | GI50 (T-47D breast): 0.0253 µM | TGI (T-47D breast): 0.868 µM | GI50 (HCT-15 colon): 0.317 µM | TGI (HCT-15 colon): > 100 µM | GI50 (OVCAR-4 ovarian): 0.625 µM | TGI (OVCAR-4 ovarian): 14.6 µM | GI50 (OVCAR-3 ovarian): 0.0383 µM | TGI (OVCAR-3 ovarian): 0.218 µM | GI50 (DU-145 prostate): 0.0115 µM | TGI (DU-145 prostate): 0.081 µM | GI50 (HS 578T breast): 2.03 µM | TGI (HS 578T breast): 58 µM

O=C(O)C1OC1C(=O)O (configuration not stated)
TGI (NCI-H460 lung): > 100 µM | TGI (UACC-62 melanoma): > 100 µM | TGI (MDA-MB-231 breast): > 100 µM | TGI (SK-MEL-28 melanoma): > 100 µM | TGI (T-47D breast): > 100 µM | TGI (HCT-15 colon): > 100 µM | TGI (OVCAR-4 ovarian): > 100 µM | TGI (OVCAR-3 ovarian): > 100 µM | TGI (DU-145 prostate): > 100 µM | TGI (HS 578T breast): > 100 µM

OC(c1ccc(Cl)cc1)(c1ccc(Cl)cc1)c1cncnc1
TGI (NCI-H460 lung): 36.4 µM | TGI (UACC-62 melanoma): 30.1 µM | TGI (MDA-MB-231 breast): 33.9 µM | TGI (SK-MEL-28 melanoma): 38 µM | TGI (T-47D breast): > 100 µM | TGI (HCT-15 colon): 39.8 µM | TGI (OVCAR-4 ovarian): 41.5 µM | TGI (OVCAR-3 ovarian): 32.2 µM | TGI (DU-145 prostate): 59.8 µM | TGI (HS 578T breast): 66.6 µM

O=S(=O)(O)c1cc(S(=O)(=O)O)c2cc(N=Nc3c(O)ccc4ccccc34)ccc2c1
TGI (UACC-62 melanoma): > 100 µM | TGI (MDA-MB-231 breast): > 100 µM | TGI (SK-MEL-28 melanoma): > 100 µM | TGI (T-47D breast): > 100 µM | TGI (HCT-15 colon): > 100 µM | TGI (OVCAR-4 ovarian): > 100 µM | TGI (OVCAR-3 ovarian): > 100 µM | TGI (DU-145 prostate): > 100 µM | TGI (HS 578T breast): > 100 µM

O=C(O)C(O)(c1ccc(-c2ccccc2)cc1)c1ccc(-c2ccccc2)cc1
TGI (NCI-H460 lung): 45.9 µM | TGI (UACC-62 melanoma): 36.7 µM | TGI (MDA-MB-231 breast): 79.1 µM | TGI (SK-MEL-28 melanoma): > 100 µM | TGI (T-47D breast): > 100 µM | TGI (HCT-15 colon): 41.5 µM | TGI (OVCAR-4 ovarian): > 100 µM | TGI (OVCAR-3 ovarian): 30.3 µM | TGI (DU-145 prostate): 40.6 µM

Clc1ccc(C2CC(c3cccc(Nc4ccncc4)c3)=NN2c2ccc(Cl)cc2)cc1 (configuration not stated)
GI50 (NCI-H460 lung): 1.86 µM | TGI (NCI-H460 lung): 3.61 µM | GI50 (UACC-62 melanoma): 1.66 µM | TGI (UACC-62 melanoma): 3.04 µM | GI50 (SK-MEL-28 melanoma): 1.67 µM | TGI (SK-MEL-28 melanoma): 3.09 µM | GI50 (HCT-15 colon): 1.55 µM | TGI (HCT-15 colon): 2.95 µM | GI50 (OVCAR-4 ovarian): 1.66 µM | TGI (OVCAR-4 ovarian): 3.08 µM | GI50 (DU-145 prostate): 1.88 µM | TGI (DU-145 prostate): 3.49 µM

COc1cc2c(cc1OC)C1c3ccccc3CCN1CCC2 (configuration not stated)
TGI (UACC-62 melanoma): > 100 µM | TGI (MDA-MB-231 breast): > 100 µM | TGI (SK-MEL-28 melanoma): > 100 µM | TGI (T-47D breast): > 100 µM | TGI (HCT-15 colon): > 100 µM | TGI (OVCAR-3 ovarian): > 100 µM | TGI (DU-145 prostate): > 100 µM

CCOC(=O)c1nc2ccccc2n(CC)c1=O
TGI (NCI-H460 lung): > 100 µM | TGI (UACC-62 melanoma): > 100 µM | TGI (MDA-MB-231 breast): > 100 µM | TGI (SK-MEL-28 melanoma): > 100 µM | TGI (T-47D breast): > 100 µM | TGI (HCT-15 colon): > 100 µM | TGI (OVCAR-4 ovarian): > 100 µM | TGI (OVCAR-3 ovarian): > 100 µM | TGI (DU-145 prostate): > 100 µM | TGI (HS 578T breast): > 100 µM

COc1ccc(NC(=S)NNC(=O)c2nsc3ccccc23)cc1
TGI (NCI-H460 lung): > 100 µM | TGI (UACC-62 melanoma): 71.6 µM | TGI (SK-MEL-28 melanoma): > 100 µM | TGI (HCT-15 colon): > 100 µM | TGI (OVCAR-4 ovarian): > 100 µM | TGI (OVCAR-3 ovarian): 52.9 µM

Nc1c(OCC(=O)O)ccc2cc(S(=O)(=O)O)ccc12
TGI (NCI-H460 lung): > 100 µM | TGI (UACC-62 melanoma): > 100 µM | TGI (MDA-MB-231 breast): > 100 µM | TGI (SK-MEL-28 melanoma): > 100 µM | TGI (T-47D breast): > 100 µM | TGI (HCT-15 colon): > 100 µM | TGI (OVCAR-4 ovarian): > 100 µM | TGI (OVCAR-3 ovarian): > 100 µM | TGI (DU-145 prostate): > 100 µM | TGI (HS 578T breast): > 100 µM

c1ccc2c(c1)OCCc1cn[nH]c1-2
TGI (NCI-H460 lung): > 100 µM | TGI (UACC-62 melanoma): > 100 µM | TGI (SK-MEL-28 melanoma): > 100 µM | TGI (HCT-15 colon): > 100 µM | TGI (OVCAR-4 ovarian): > 100 µM | TGI (OVCAR-3 ovarian): > 100 µM

CO/N=C(/C)c1cccc(Nc2nc3ccc(Cl)cc3c3[nH]c4ccccc4c23)c1
TGI (NCI-H460 lung): 18.8 µM | TGI (UACC-62 melanoma): 19.8 µM | TGI (MDA-MB-231 breast): 27.8 µM | TGI (T-47D breast): 7.28 µM | TGI (HCT-15 colon): 27.1 µM | TGI (OVCAR-3 ovarian): 18.5 µM | TGI (DU-145 prostate): 24.9 µM | TGI (HS 578T breast): 45.8 µM

O=NN1C(c2ccccc2)C2CCCC(C2=O)C1c1ccccc1 (configuration not stated)
TGI (NCI-H460 lung): 48.3 µM | TGI (UACC-62 melanoma): 59 µM | TGI (SK-MEL-28 melanoma): 44.3 µM | TGI (HCT-15 colon): > 87.7 µM | TGI (OVCAR-4 ovarian): 66.3 µM | TGI (OVCAR-3 ovarian): 9.28 µM

CCCCN(CCCC)CCC(O)c1cc(-c2ccc(C(F)(F)F)cc2)nc(-c2ccc(C(F)(F)F)cc2)c1 (configuration not stated)
TGI (NCI-H460 lung): > 100 µM | TGI (UACC-62 melanoma): > 100 µM | TGI (MDA-MB-231 breast): > 100 µM | TGI (SK-MEL-28 melanoma): > 100 µM | TGI (T-47D breast): > 100 µM | TGI (HCT-15 colon): > 100 µM | TGI (OVCAR-4 ovarian): > 100 µM | TGI (OVCAR-3 ovarian): > 100 µM | TGI (DU-145 prostate): > 100 µM

O=C(Nn1c(-c2cccs2)nc2ccc(I)cc2c1=O)c1ccccc1
TGI (NCI-H460 lung): > 100 µM | TGI (UACC-62 melanoma): 57.3 µM | TGI (SK-MEL-28 melanoma): 53 µM | GI50 (T-47D breast): 11.1 µM | TGI (T-47D breast): 37.6 µM | TGI (HCT-15 colon): > 100 µM | TGI (OVCAR-4 ovarian): 80.6 µM | TGI (OVCAR-3 ovarian): 39.3 µM | TGI (DU-145 prostate): 46.7 µM

CC1C2CCC3C(O)C2(CC(O)C2(O)C1CC(O)C2(C)C)CC3(C)O (configuration not stated)
TGI (NCI-H460 lung): > 100 µM | TGI (UACC-62 melanoma): > 100 µM | TGI (MDA-MB-231 breast): > 100 µM | TGI (SK-MEL-28 melanoma): > 100 µM | TGI (T-47D breast): > 100 µM | TGI (HCT-15 colon): > 100 µM | TGI (OVCAR-4 ovarian): > 100 µM | TGI (DU-145 prostate): > 100 µM | TGI (HS 578T breast): > 100 µM

COc1ccc(C(=O)NC2=C(Cl)C(=O)c3ccccc3C2=O)cc1
TGI (NCI-H460 lung): 13.7 µM | TGI (UACC-62 melanoma): 2.63 µM | TGI (MDA-MB-231 breast): 14.6 µM | TGI (SK-MEL-28 melanoma): 17.9 µM | TGI (T-47D breast): 3.83 µM | TGI (HCT-15 colon): 11 µM | TGI (OVCAR-4 ovarian): 7.72 µM | TGI (OVCAR-3 ovarian): 6.26 µM | TGI (DU-145 prostate): 15.2 µM | TGI (HS 578T breast): 33.5 µM

NC1C=NNC1=O (configuration not stated)
TGI (UACC-62 melanoma): > 100 µM | TGI (SK-MEL-28 melanoma): > 100 µM | TGI (HCT-15 colon): > 100 µM | TGI (OVCAR-4 ovarian): > 100 µM

COC1CC(OC2CCC3(C)C(=CCC4C3C(OC(C)=O)C(OC(=O)CC(C)C)C3(C)C(C(C)=O)CCC43O)C2)OC(C)C1OC1CC(OC)C(OC2CC(OC)C(OC3OC(C)C(O)C(OC)C3O)C(C)O2)C(C)O1 (configuration not stated)
TGI (NCI-H460 lung): > 100 µM | TGI (UACC-62 melanoma): > 100 µM | TGI (MDA-MB-231 breast): 65.6 µM | TGI (SK-MEL-28 melanoma): > 100 µM | TGI (T-47D breast): > 100 µM | TGI (HCT-15 colon): > 100 µM | TGI (OVCAR-4 ovarian): > 100 µM | TGI (OVCAR-3 ovarian): > 100 µM | TGI (DU-145 prostate): > 100 µM | TGI (HS 578T breast): > 100 µM

C[C@]12Cc3cnc(-c4ccccc4)nc3C[C@@H]1CC[C@@H]1[C@@H]2CC[C@@]2(C)[C@H]1CC[C@]2(C)O
TGI (NCI-H460 lung): 39.4 µM | TGI (UACC-62 melanoma): 48.4 µM | TGI (MDA-MB-231 breast): 73.1 µM | TGI (SK-MEL-28 melanoma): 56.9 µM | TGI (T-47D breast): 39.7 µM | TGI (HCT-15 colon): > 63.2 µM | TGI (OVCAR-4 ovarian): 66.7 µM | TGI (OVCAR-3 ovarian): 54.4 µM | TGI (DU-145 prostate): 44.1 µM | TGI (HS 578T breast): 65.2 µM

CN(CCO)Cc1ncccc1O
TGI (NCI-H460 lung): > 100 µM | TGI (UACC-62 melanoma): > 100 µM | TGI (MDA-MB-231 breast): > 100 µM | TGI (SK-MEL-28 melanoma): > 100 µM | TGI (T-47D breast): > 100 µM | TGI (HCT-15 colon): > 100 µM | TGI (OVCAR-4 ovarian): > 100 µM | TGI (OVCAR-3 ovarian): > 100 µM | TGI (DU-145 prostate): > 100 µM | TGI (HS 578T breast): > 100 µM
